Reference: patent US7446079B2, “Perfumes for rinse-off systems” (Givaudan Fragrances Corporation, priority 2005, dated 2008)
“And” between values parts separate entries of the source, which are not always exact repeats. Identical values can stand only once. Like-named read-outs stand apart in the source and are kept apart here.

What was measured:
[1] = in water, cited from earlier work; for exp ODT (ppb) water: experimental values from the Booleans database
[2] = GC-MS headspace release profile of Tropical Fruit perfume in shampoo, 1/100 dilution in water; format: physicochemical
Method: A 10 gram sample of formulation and fragrance was added to an empty 1000 ml pyrex beaker. This beaker was then filled with 1000 ml of 120 F tap water. Beaker with diluted shampoo sample was then immediately placed into a semi-enclosed plexiglass chamber.
Headspace Sampling: Once beaker was placed into chamber a Carboxan SPME field fiber was held at the top-side opening of the chamber over the beaker containing the sample. […] […] Top of plexiglass chamber was held open for entire 5 minutes of headspace sampling.

CC=Cc1ccc(O)c(OC)c1 [1-Hydroxy-2-methoxy-4-propenylbenzene]
exp ODT (ppb) water [1]: 30-40 ppb

CCCCCCCC=O [1-Octanal]
exp ODT (ppb) water [1]: 30 ppb

COc1cc(C=O)ccc1O [4-Hydroxy-3-methoxybenzaldehyde]
exp ODT (ppb) water [1]: 25-58 ppb and 20-200 ppb

Cc1ccc(C(C)C)c(O)c1 [5-Methyl-2-isopropylphenol]
exp ODT (ppb) water [1]: 400 ppb

C=CCOC(=O)CCCCC [ALLYL CAPROATE]
ODT (ppb) ([1]; Table 9): less than 50 ppb | ODT (ppb) ([1]; Table 11): less than 50 ppb | ODT (ppb) ([1]; Table 13): less than 50 ppb

C=CCOC(=O)CCC1CCCCC1 [ALLYL CYCLOHEXYL PROPIONATE]
ODT (ppb) ([1]; Table 9): less than 50 ppb | ODT (ppb) ([1]; Table 11): less than 50 ppb | ODT (ppb) ([1]; Table 13): less than 50 ppb | GC Abundance ([2]; headspace at 40 seconds): 7000 | GC Abundance ([2]; headspace at 50 seconds): 10000

CCCCOC(C)=O [Butyl acetate]
exp ODT (ppb) water [1]: 44-88 ppb

CC/C=C\CCOC(C)=O [CIS-3-HEXENYL ACETATE]
ODT (ppb) ([1]; Table 9): less than 50 ppb | ODT (ppb) ([1]; Table 11): less than 50 ppb | ODT (ppb) ([1]; Table 13): less than 50 ppb | GC Abundance ([2]; headspace at 20 seconds): 5000 | GC Abundance ([2]; headspace at 30 seconds): 14000 | GC Abundance ([2]; headspace at 40 seconds): 14000 | GC Abundance ([2]; headspace at 50 seconds): 14000

CC/C=C\CCOC(=O)c1ccccc1O [CIS-3-HEXENYL SALICYLATE]
ODT (ppb) ([1]; Table 9): less than 50 ppb | ODT (ppb) ([1]; Table 11): less than 50 ppb | ODT (ppb) ([1]; Table 13): less than 50 ppb

CC(C)=CCCC(C)CC#N (stereo not drawn) [CITRONELLYL NITRILE]
ODT (ppb) ([1]; Table 9): less than 50 ppb | ODT (ppb) ([1]; Table 11): less than 50 ppb | ODT (ppb) ([1]; Table 13): less than 50 ppb

C=CCOC(=O)COC1CCCCC1 [CYCLOGALBANATE]
ODT (ppb) ([1]; Table 9): less than 50 ppb | ODT (ppb) ([1]; Table 11): less than 50 ppb | ODT (ppb) ([1]; Table 13): less than 50 ppb

CC=CC(=O)C1=C(C)C=CCC1(C)C [DAMASCENONE, 1-(2,6,6-Trimethylcyclohexa-1,3-dienyl)-2-buten-1-one]
exp ODT (ppb) water [1]: 0.002 ppb | GC Abundance ([2]; headspace at 50 seconds): 1000

CC1=CCC(/C=C\C(C)C(C)O)C1(C)C (stereo not drawn) [EBANOL]
ODT (ppb) ([1]; Table 9): less than 50 ppb | ODT (ppb) ([1]; Table 11): less than 50 ppb | ODT (ppb) ([1]; Table 13): less than 50 ppb

CCOC(=O)CC(C)=O [ETHYL ACETOACETATE]
ODT (ppb) ([1]; Table 9): less than 50 ppb | ODT (ppb) ([1]; Table 11): less than 50 ppb | ODT (ppb) ([1]; Table 13): less than 50 ppb

CCCC(=O)OCC [ETHYL BUTYRATE]
ODT (ppb) ([1]; Table 9): less than 50 ppb | ODT (ppb) ([1]; Table 11): less than 50 ppb | ODT (ppb) ([1]; Table 13): less than 50 ppb | exp ODT (ppb) water [1]: 1 ppb | GC Abundance ([2]; headspace at 10 seconds): 2800 | GC Abundance ([2]; headspace at 20 seconds): 2800 | GC Abundance ([2]; headspace at 30 seconds): 2800 | GC Abundance ([2]; headspace at 40 seconds): 2000 | GC Abundance ([2]; headspace at 50 seconds): 800

CCOC(=O)C1OC1(C)c1ccccc1 (stereo not drawn) [Ethyl 2,3-epoxy-3-methyl-3-phenylpropionate]
exp ODT (ppb) water [1]: 25 ppb

CCOC(=O)C(C)CC (stereo not drawn) [Ethyl 2-methylbutyrate]
exp ODT (ppb) water [1]: 0.1-0.3 ppb | GC Abundance ([2]; headspace at 10 seconds): 3000 | GC Abundance ([2]; headspace at 20 seconds): 3100 | GC Abundance ([2]; headspace at 30 seconds): 3100 | GC Abundance ([2]; headspace at 40 seconds): 2000 | GC Abundance ([2]; headspace at 50 seconds): 1500

CCOC(=O)CC1(C)OCCO1 [FRUCTONE]
ODT (ppb) ([1]; Table 9): less than 50 ppb | ODT (ppb) ([1]; Table 11): less than 50 ppb | ODT (ppb) ([1]; Table 13): less than 50 ppb | GC Abundance ([2]; headspace at 20 seconds): 3000 | GC Abundance ([2]; headspace at 30 seconds): 5000 | GC Abundance ([2]; headspace at 40 seconds): 5000 | GC Abundance ([2]; headspace at 50 seconds): 5000

CCCCCCC1CCC(=O)O1 (stereo not drawn) [GAMMA-DECALACTONE, 5-Hexyldihydro-2(3H)-furanone]
ODT (ppb) ([1]; Table 9): less than 50 ppb | ODT (ppb) ([1]; Table 11): less than 50 ppb | ODT (ppb) ([1]; Table 13): less than 50 ppb | GC Abundance ([2]; headspace at 40 seconds): 4000 | GC Abundance ([2]; headspace at 50 seconds): 7000

CCCCCC1C(=O)CCC1CC(=O)OC (stereo not drawn) [HEDIONE]
ODT (ppb) ([1]; Table 9): less than 50 ppb | ODT (ppb) ([1]; Table 11): less than 50 ppb | ODT (ppb) ([1]; Table 13): less than 50 ppb | GC Abundance ([2]; headspace at 50 seconds): 4000

CCCCCCOC(C)=O [HEXYL ACETATE]
ODT (ppb) ([1]; Table 9): less than 50 ppb | ODT (ppb) ([1]; Table 11): less than 50 ppb | ODT (ppb) ([1]; Table 13): less than 50 ppb

CCCCCCC(C=O)=Cc1ccccc1 [HEXYL CINNAMIC ALDEHYDE]
ODT (ppb) ([1]; Table 13): less than 50 ppb | GC Abundance ([2]; headspace at 40 seconds): 2000 | GC Abundance ([2]; headspace at 50 seconds): 9000

C=C(C)C1CC=C(C)C(=O)C1 (stereo not drawn) [I-1-Methyl-4-isopropenyl-6-cyclohexen-2-one]
exp ODT (ppb) water [1]: 50 ppb

CC(=O)C=CC1=C(C)CCCC1(C)C [IONONE BETA PURE, 4-(2,6,6-Trimethyl-1-cyclohexen-1-yl)-3-buten-2-one]
ODT (ppb) ([1]; Table 9): less than 50 ppb | ODT (ppb) ([1]; Table 11): less than 50 ppb | ODT (ppb) ([1]; Table 13): less than 50 ppb | exp ODT (ppb) water [1]: 4-6 ppb | GC Abundance ([2]; headspace at 30 seconds): 2000 | GC Abundance ([2]; headspace at 40 seconds): 10000 | GC Abundance ([2]; headspace at 50 seconds): 18000

CC(C=O)Cc1ccc(C(C)(C)C)cc1 (stereo not drawn) [LILIAL]
ODT (ppb) ([1]; Table 9): less than 50 ppb | ODT (ppb) ([1]; Table 11): less than 50 ppb | ODT (ppb) ([1]; Table 13): less than 50 ppb

C=CC(C)(O)CCC=C(C)C (stereo not drawn) [LINALOOL]
ODT (ppb) ([1]; Table 9): less than 50 ppb | ODT (ppb) ([1]; Table 11): less than 50 ppb | ODT (ppb) ([1]; Table 13): less than 50 ppb | GC Abundance ([2]; headspace at 10 seconds): 500 | GC Abundance ([2]; headspace at 20 seconds): 18000 | GC Abundance ([2]; headspace at 30 seconds): 18000 | GC Abundance ([2]; headspace at 40 seconds): 18000 | GC Abundance ([2]; headspace at 50 seconds): 18000

CC(C)(O)CCCC1=CCC(C=O)CC1 (stereo not drawn) [LYRAL]
ODT (ppb) ([1]; Table 13): less than 50 ppb

CCCC(C)C(=O)OCC (stereo not drawn) [MANZANATE, Ethyl 2-methylpentanoate]
exp ODT (ppb) water [1]: 0.0030 ppb | GC Abundance ([2]; headspace at 10 seconds): 1000 | GC Abundance ([2]; headspace at 20 seconds): 4000 | GC Abundance ([2]; headspace at 30 seconds): 4000 | GC Abundance ([2]; headspace at 40 seconds): 3000 | GC Abundance ([2]; headspace at 50 seconds): 1500

COC(=O)c1c(C)cc(O)c(C)c1O [METHYL ATRATATE]
GC Abundance ([2]; headspace at 50 seconds): 50

CC(=O)OC/C=C(/C)CCC=C(C)C [NERYL ACETATE]
ODT (ppb) ([1]; Table 9): less than 50 ppb | ODT (ppb) ([1]; Table 11): less than 50 ppb | ODT (ppb) ([1]; Table 13): less than 50 ppb

CC(C)C(=O)OCCOc1ccccc1 [PHENOXY ETHYL ISOBUTYRATE]
ODT (ppb) ([1]; Table 9): less than 50 ppb | ODT (ppb) ([1]; Table 11): less than 50 ppb | ODT (ppb) ([1]; Table 13): less than 50 ppb

CCCCCOC(C)=O [Pentyl Acetate]
exp ODT (ppb) water [1]: 43 ppb

CCCCCOC(=O)CCC [Pentyl butyrate]
exp ODT (ppb) water [1]: 44-87 ppb

CC(C)=CC1CC(C)CCO1 (stereo not drawn) [ROSE OXIDE (HIGH CIS), Tetrahydro-4-methyl-2-(2-methylpropen-1-yl)pyran]
exp ODT (ppb) water [1]: 0.5 ppb | GC Abundance ([2]; headspace at 20 seconds): 10000 | GC Abundance ([2]; headspace at 30 seconds): 14000 | GC Abundance ([2]; headspace at 40 seconds): 14000 | GC Abundance ([2]; headspace at 50 seconds): 14000

CC1=CCC(CCC(C)C(C)O)C1(C)C (stereo not drawn) [SANDALORE]
GC Abundance ([2]; headspace at 50 seconds): 2000

CC(=O)OC(C)(C)C1CC=C(C)CC1 (stereo not drawn) [TERPINYL ACETATE]
GC Abundance ([2]; headspace at 30 seconds): 1000 | GC Abundance ([2]; headspace at 40 seconds): 9000 | GC Abundance ([2]; headspace at 50 seconds): 9000

CCC=C(C)C(O)CCCCC (stereo not drawn) [UNDECAVERTOL, 4-Methyl-3-decen-5-ol]
GC Abundance ([2]; headspace at 40 seconds): 10000 | GC Abundance ([2]; headspace at 50 seconds): 10000

CC(=O)OC1CCC(C(C)(C)C)CC1 (stereo not drawn) [VERTENEX HC]
GC Abundance ([2]; headspace at 30 seconds): 2000 | GC Abundance ([2]; headspace at 40 seconds): 8000 | GC Abundance ([2]; headspace at 50 seconds): 10000

CC(=O)C=CC1C(C)=CCCC1(C)C (stereo not drawn) [alpha ionone, 4-(2,2,6-Trimethyl-2-cyclohexen-1-yl)-3-buten-2-one]
exp ODT (ppb) water [1]: 0.4-10 ppb

C=C(C)[C@H]1CC=C(C)CC1 [d-LIMONENE, d-1-Methyl-4-isopropenyl-1-cyclohexene]
GC Abundance ([2]; headspace at 5 seconds, Tropical Fruit perfume 1% in shampoo): 7000 | GC Abundance ([2]; headspace at 10 seconds): 7000 | GC Abundance ([2]; headspace at 20 seconds): 7000 | GC Abundance ([2]; headspace at 30 seconds): 7000 | GC Abundance ([2]; headspace at 40 seconds): 5000 | GC Abundance ([2]; headspace at 50 seconds): 4000

CC(C)=CCCC(C)C=O (stereo not drawn) [melonal, 2,6-Dimethyl-5-heptenal]
exp ODT (ppb) water [1]: 16 ppb

CCC(=O)OC/C=C(\C)CCC=C(C)C [trans-3,7-Dimethyl-2,6-octadien-1-yl propanoate]
exp ODT (ppb) water [1]: 10 ppb

OXANONE CRYSTALS
GC Abundance ([2]; headspace at 50 seconds): 70

VERTOFIX COEUR
GC Abundance ([2]; headspace at 50 seconds): 50
